Patent US7160913B2, “Methods and kit for treating Parkinson's disease” (Thomas Jefferson University, priority 2002, dated 2007)

Experiments:
parkinsonian monkey [1] = assay: Severity of levodopa-induced choreiform dyskinesias in a parkinsonian monkey; assay type: in vivo
Procedure: A parkinsonian monkey was primed for choreiform dyskinesia following chronic administration of levodopa plus the peripheral dopa decarboxylase inhibitor benserazide. […] Severity of the dyskinesias was rated by observers blind to the treatment condition. Three independent repetitions of the study were performed.

parkinsonian monkeys [2] = assay: Peak-dose levodopa anti-parkinsonian efficacy in parkinsonian monkeys; assay type: in vivo, monkey; settings: 8 mg/kg D-cycloserine with 40 mg/kg levodopa plus 15 mg benserazide; assessed 30 or 60 minutes after levodopa; two parkinsonian monkeys
Procedure: In two parkinsonian monkeys with an established therapeutic response to levodopa, peak-dose levodopa efficacy was assessed by raters blind to treatment condition. Eight mg/kg D-cycloserine was administered to the monkeys with 40 mg/kg levodopa plus 15 mg benserazide.

parkinsonian monkeys [3] = assay: Duration of levodopa anti-Parkinson effect ("on" time) in parkinsonian monkeys; assay type: in vivo, monkey; settings: 8 mg/kg D-cycloserine with 40 mg/kg levodopa plus 15 mg benserazide, compared to levodopa plus benserazide alone; two parkinsonian monkeys; blinded raters
Procedure: Eight mg/kg D-cycloserine was administered to two parkinsonian monkeys with an established therapeutic response to levodopa, together with 40 mg/kg levodopa plus the 15 mg of the peripheral dopa decarboxylase inhibitor benserazide. Symptomatic benefit was assessed by raters blind to treatment condition.

parkinsonian monkey [4] = assay: Severity of levodopa-induced dystonias in a parkinsonian monkey; assay type: in vivo; settings: 8 mg/kg D-cycloserine with 40 mg/kg levodopa plus 15 mg benserazide vs L-Dopa alone; at least over 120 minutes; three repetitions
Procedure: Under these conditions, 8 mg/kg D-cycloserine was administered to the monkeys with 40 mg/kg levodopa plus 15 mg benserazide. The severity of the dystonia was rated by observers blind to the treatment condition. […] Three independent repetitions of the study were performed.

| Structure (SMILES) | severity of levodopa-induced choreiform dyskinesias (parkinsonian monkey [1]; 8 mg/kg D-cycloserine with 40 mg/kg levodopa plus 15 mg benserazide vs L-Dopa alone, at least over 120 minutes, monkey primed by chronic levodopa/benserazide, three repetitions) | effect on therapeutic (anti-parkinsonian) efficacy of levodopa, peak-dose (parkinsonian monkeys [2]) | enhancement of levodopa "on" time, or duration of symptomatic relief by levodopa (parkinsonian monkeys [3]) | severity of levodopa-induced dystonias (parkinsonian monkey [4]) | choreiform dyskinesias caused by levodopa challenge (parkinsonian monkey [1]; 40 mg/kg challenge dose of levodopa, parkinsonian monkey primed by chronic levodopa plus benserazide) |
| --- | --- | --- | --- | --- | --- |
| N[C@@H]1CONC1=O [D-cycloserine] | significantly decreased the severity of these dyskinesias | did not interfere with or reduce the therapeutic efficacy of levodopa | 41% | significantly decreased the severity of the dystonias |  |
| N[C@@H](Cc1ccc(O)c(O)c1)C(=O)O [levodopa] |  |  |  |  | caused significant choreiform dyskinesias |
